Patent US20210024542A1 (Torcept Therapeutics, Inc., priority 2018, published 2021)
pEC50, pIC50: −log10 of the molar value. Like-named read-outs stand apart in the source and are kept apart here.

Assays:
A101D = experiment: OncoPanel cell proliferation assay, A101D; assay type: cell-based, human
Experimental: (§1) Cells were grown in RPMI 1640, 10% FBS, 2 mM L-alanyl-L-glutamine, 1 mM Na pyruvate, or a special medium. Cells were seeded into 384-well plates and incubated in a humidified atmosphere of 5% CO2 at 37° C. Compounds were added the day following cell seeding. At the same time, a time zero untreated cell plate was generated. After a 3-day incubation period, cells were fixed and stained to allow fluorescence imaging of nuclei. Compounds (1 mM stock solutions) were serially diluted in half-log steps from the highest test concentration ([…]), and assayed over 10 concentrations with a maximum assay concentration of 0.1% DMSO. Automated fluorescence microscopy was carried out using a Molecular Devices ImageXpress Micro XL high-content imager, and images were collected with a 4× objective. 16-bit TIFF images were acquired and analyzed with MetaXpress 5.1.0.41 software.
(§2) Cell proliferation was measured by the fluorescence intensity of an incorporated nuclear dye. The output is referred to as the relative cell count, where the measured nuclear intensity is transformed to percent of control (POC) using the following formula: […]
(§3) Cellular response parameters were calculated using nonlinear regression to a sigmoidal single-site dose response model:
(§4) Where y is a response measured at concentration x, A and B are the lower and upper limits of the response, C is the concentration at the response midpoint (EC50), and D is the Hill Slope (Ref. 1).
(§5) EC50 is the test compound concentration at the curve inflection point or half the effective response (parameter C of the fitted curve solution). GI50 is the concentration needed to reduce the observed growth by half (midway between the curve maximum and the time zero value). “Cell Count Activity Area” is an estimate of the integrated area above the curve (Barretina, et al. The Cancer Cell Line Encyclopedia enables predictive modelling of anticancer drug sensitivity. Nature 483: 603-607). […] In rare instances, values <0 or >10 may be observed. […] Curve-fitting, calculations, and report generation was performed using a custom data reduction engine and MathIQ based software (AIM).

786-O = experiment: OncoPanel cell proliferation assay, 786-O; assay type: cell-based, human; conditions: for Relative cell count (%) Mean: 786-0
Experimental: as §1, §2, §3, §4, §5

TF-1 = experiment: OncoPanel cell proliferation assay, TF-1; assay type: cell-based, human; conditions: for Relative cell count (%) Mean: TF-1
Experimental: as §1, §2, §3, §4, §5

SK-MEL-28 = experiment: OncoPanel cell proliferation assay, SK-MEL-28; assay type: cell-based, human; conditions: for Relative cell count (%) Mean: SK-MEL-28
Experimental: as §1, §2, §3, §4, §5

SK-NEP-1 = experiment: OncoPanel cell proliferation assay, SK-NEP-1; conditions: for Relative cell count (%) Mean: SK-NEP-1
Experimental: Cells were seeded into 384-well plates and incubated in a humidified atmosphere of 5% CO2 at 37° C. Compounds were added the day following cell seeding. At the same time, a time zero untreated cell plate was generated. After a 3-day incubation period, cells were fixed and stained to allow fluorescence imaging of nuclei. Compounds (1 mM stock solutions) were serially diluted in half-log steps from the highest test concentration (1 micromol), and assayed over 10 concentrations with a maximum assay concentration of 0.1% DMSO. Automated fluorescence microscopy was carried out using a Molecular Devices ImageXpress Micro XL high-content imager, and images were collected with a 4× objective. 16-bit TIFF images were acquired and analyzed with MetaXpress 5.1.0.41 software.
GI50 is the concentration needed to reduce the observed growth by half (midway between the curve maximum and the time zero value). […] In rare instances, values <0 or >10 may be observed. […] Curve-fitting, calculations, and report generation was performed using a custom data reduction engine and MathIQ based software (AIM).

U-138MG = experiment: OncoPanel cell proliferation assay, U-138MG; assay type: cell-based, human
Experimental: as §1, §2, §3, §4, §5

Hs 729 = experiment: OncoPanel cell proliferation assay, Hs 729; assay type: cell-based, human; conditions: for Relative cell count (%) Mean: Hs 729
Experimental: as §1, §2, §3, §4, §5

With CO[C@H]1C[C@@H]2CC[C@@H](C)[C@@](O)(O2)C(=O)C(=O)N2CCCC[C@H]2C(=O)O[C@H]([C@H](C)C[C@@H]2C[C@@H]3C[C@H]2C[C@H]3O)CC(=O)[C@H](C)/C=C(\C)[C@@H](O)[C@@H](OC)C(=O)[C@H](C)C[C@H](C)/C=C/C=C/C=C/1C [Formula I, 37R-hydroxynorbornylrapamycin] the “Relative cell count (%) Mean” value (A101D; 1.00E+00 microM) was 50.8%, the “Relative cell count (%) Mean” value (A101D; 1.00E−01 microM) was 57.8% and the “Relative cell count (%) Mean” value (A101D; 1.00E−02 microM) was 54.7%. For the same compound, the “Relative cell count (%) Mean” value (A101D; 1.00E−03 microM) was 66.8%, the “Relative cell count (%) Mean” value (A101D; 1.01E−04 microM) was 90.7% and the “Relative cell count (%) Mean” value (A101D; 3.16E−01 microM) was 52.8%. For the same compound, the “Relative cell count (%) Mean” value (A101D; 3.17E−02 microM) was 58.0%, the “Relative cell count (%) Mean” value (A101D; 3.17E−03 microM) was 61.9% and the “Relative cell count (%) Mean” value (A101D; 3.18E−04 microM) was 78.1%. For the same compound, the “Relative cell count (%) Mean” value (A101D; 3.18E−05 microM) was 95.8%, the pEC50 (A101D; Homo sapiens, 72 h, 3-day incubation, read-out: Cell Count EC50) was 9.49 and the GI50 (A101D; Homo sapiens, 72 h, 3-day incubation, read-out: Cell Count GI50) was 0.999 nM. The pIC50 (A101D; Homo sapiens, 72 h, 3-day incubation, read-out: Cell Count IC50) was less than 6.00, the “Cell Count Activity Area” value (A101D; scale 0-10) was 3.52 and the “Relative cell count (%) Mean” value (786-O; 1.00E+00 microM) was 37.4%. For the same compound, the “Relative cell count (%) Mean” value (786-O; 1.00E−01 microM) was 44.8%, the “Relative cell count (%) Mean” value (786-O; 1.00E−02 microM) was 52.1% and the “Relative cell count (%) Mean” value (786-O; 1.00E−03 microM) was 61.1%. For the same compound, the “Relative cell count (%) Mean” value (786-O; 1.01E−04 microM) was 88.5%, the “Relative cell count (%) Mean” value (786-O; 3.16E−01 microM) was 43.9% and the “Relative cell count (%) Mean” value (786-O; 3.17E−02 microM) was 46.5%. The “Relative cell count (%) Mean” value (786-O; 3.17E−03 microM) was 60.0%, the “Relative cell count (%) Mean” value (786-O; 3.18E−04 microM) was 77.4% and the “Relative cell count (%) Mean” value (786-O; 3.18E−05 microM) was 100.6%. The “Cell Count Activity Area” value (786-O; 786-O, scale 0-10) was 4.43, the pEC50 (786-O; Homo sapiens, 786-0, 72 h, 786-O, 3-day incubation, read-out: Cell Count EC50) was 9.40 and the GI50 (786-O; Homo sapiens, 786-0, 72 h, 786-O, 3-day incubation, read-out: Cell Count GI50) was 1.91 nM. It also gave a pIC50 (786-O; Homo sapiens, 786-0, 72 h, 786-O, 3-day incubation, read-out: Cell Count IC50) of 8.39, a pEC50 (TF-1; Homo sapiens, 72 h, TF-1, 3-day incubation, read-out: Cell Count EC50) of less than 6.00 and a GI50 (TF-1; Homo sapiens, 72 h, TF-1, 3-day incubation, read-out: Cell Count GI50) greater than 1000 nM. For the same compound, the pIC50 (TF-1; Homo sapiens, 72 h, TF-1, 3-day incubation, read-out: Cell Count IC50) was less than 6.00, the “Cell Count Activity Area” value (TF-1; TF-1, scale 0-10) was 1.64 and the “Relative cell count (%) Mean” value (TF-1; 1.00E+00 microM) was 80.6%. For the same compound, the “Relative cell count (%) Mean” value (TF-1; 1.00E−01 microM) was 80.1%, the “Relative cell count (%) Mean” value (TF-1; 1.00E−02 microM) was 81.1% and the “Relative cell count (%) Mean” value (TF-1; 1.00E−03 microM) was 87.4%. The “Relative cell count (%) Mean” value (TF-1; 1.01E−04 microM) was 97.8%, the “Relative cell count (%) Mean” value (TF-1; 3.16E−01 microM) was 80.1% and the “Relative cell count (%) Mean” value (TF-1; 3.17E−02 microM) was 81.3%. For the same compound, the “Relative cell count (%) Mean” value (TF-1; 3.17E−03 microM) was 88.0%, the “Relative cell count (%) Mean” value (TF-1; 3.18E−04 microM) was 88.0% and the “Relative cell count (%) Mean” value (TF-1; 3.18E−05 microM) was 96.7%. The pEC50 (SK-MEL-28; Homo sapiens, 72 h, SK-MEL-28, 3-day incubation, read-out: Cell Count EC50) was 9.71, the GI50 (SK-MEL-28; Homo sapiens, 72 h, SK-MEL-28, 3-day incubation, read-out: Cell Count GI50) was greater than 1000 nM and the pIC50 (SK-MEL-28; Homo sapiens, 72 h, SK-MEL-28, 3-day incubation, read-out: Cell Count IC50) was less than 6.00. The pEC50 (SK-MEL-28; Homo sapiens, Table 4 summary, SK-MEL-28, Melanoma, read-out: EC50) was 9.72, the “Cell Count Activity Area” value (SK-MEL-28; SK-MEL-28, scale 0-10) was 1.87 and the “Relative cell count (%) Mean” value (SK-MEL-28; 1.00E−01 microM) was 65.6%. For the same compound, the “Relative cell count (%) Mean” value (SK-MEL-28; 1.00E−02 microM) was 71.4%, the “Relative cell count (%) Mean” value (SK-MEL-28; 1.00E−03 microM) was 75.0% and the “Relative cell count (%) Mean” value (SK-MEL-28; 1.01E−04 microM) was 88.2%. For the same compound, the “Relative cell count (%) Mean” value (SK-MEL-28; 3.17E−02 microM) was 68.9%, the “Relative cell count (%) Mean” value (SK-MEL-28; 3.17E−03 microM) was 70.8% and the “Relative cell count (%) Mean” value (SK-MEL-28; 3.18E−04 microM) was 79.6%. For the same compound, the “Relative cell count (%) Mean” value (SK-MEL-28; 3.18E−05 microM) was 93.8%, the pEC50 (SK-NEP-1; Homo sapiens, SK-NEP-1, 72 h, read-out: Cell Count EC50) was 9.15 and the GI50 (SK-NEP-1; Homo sapiens, SK-NEP-1, 72 h, read-out: Cell Count GI50) was 0.747 nM. The pIC50 (SK-NEP-1; Homo sapiens, SK-NEP-1, 72 h, read-out: Cell Count IC50) was 8.62, the “Cell Count Activity Area” value (SK-NEP-1; SK-NEP-1, scale 0-10) was 4.35 and the “Relative cell count (%) Mean” value (SK-NEP-1; 1.00E+00 microM) was 35.6%. For the same compound, the “Relative cell count (%) Mean” value (SK-NEP-1; 1.00E−01 microM) was 38.6%, the “Relative cell count (%) Mean” value (SK-NEP-1; 1.00E−02 microM) was 45.3% and the “Relative cell count (%) Mean” value (SK-NEP-1; 1.00E−03 microM) was 63.5%. For the same compound, the “Relative cell count (%) Mean” value (SK-NEP-1; 1.01E−04 microM) was 100.0%, the “Relative cell count (%) Mean” value (SK-NEP-1; 3.16E−01 microM) was 35.6% and the “Relative cell count (%) Mean” value (SK-NEP-1; 3.17E−02 microM) was 40.0%. The “Relative cell count (%) Mean” value (SK-NEP-1; 3.17E−03 microM) was 48.8%, the “Relative cell count (%) Mean” value (SK-NEP-1; 3.18E−04 microM) was 83.9% and the “Relative cell count (%) Mean” value (SK-NEP-1; 3.18E−05 microM) was 99.4%. It also gave a pEC50 (U-138MG; Homo sapiens, U138-MG, 72 h, U-138MG, 3-day incubation, read-out: Cell Count EC50) of 10.01, a GI50 (U-138MG; Homo sapiens, U138-MG, 72 h, U-138MG, 3-day incubation, read-out: Cell Count GI50) of 0.54 nM and a pIC50 (U-138MG; Homo sapiens, U138-MG, 72 h, U-138MG, 3-day incubation, read-out: Cell Count IC50) of less than 6.00. For the same compound, the pEC50 (U-138MG; Homo sapiens, U138-MG, Table 4 summary, U-138 MG, Glioblastoma, read-out: EC50) was 10.01, the “Cell Count Activity Area” value (U-138MG; U-138MG, scale 0-10) was 3.00 and the “Relative cell count (%) Mean” value (U-138MG; U-138MG, 1.00E+00 microM) was 62.8%. The “Relative cell count (%) Mean” value (U-138MG; U-138MG, 1.00E−01 microM) was 66.3%, the “Relative cell count (%) Mean” value (U-138MG; U-138MG, 1.00E−02 microM) was 71.3% and the “Relative cell count (%) Mean” value (U-138MG; U-138MG, 1.00E−03 microM) was 70.6%. For the same compound, the “Relative cell count (%) Mean” value (U-138MG; U-138MG, 1.01E−04 microM) was 82.1%, the “Relative cell count (%) Mean” value (U-138MG; U-138MG, 3.16E−01 microM) was 64.5% and the “Relative cell count (%) Mean” value (U-138MG; U-138MG, 3.17E−02 microM) was 66.8%. For the same compound, the “Relative cell count (%) Mean” value (U-138MG; U-138MG, 3.17E−03 microM) was 70.9%, the “Relative cell count (%) Mean” value (U-138MG; U-138MG, 3.18E−04 microM) was 75.7% and the “Relative cell count (%) Mean” value (U-138MG; U-138MG, 3.18E−05 microM) was 98.2%. For the same compound, the pEC50 (Hs 729; Homo sapiens, 72 h, Hs 729, 3-day incubation, read-out: Cell Count EC50) was 7.85, the GI50 (Hs 729; Homo sapiens, 72 h, Hs 729, 3-day incubation, read-out: Cell Count GI50) was 17.3 nM and the pIC50 (Hs 729; Homo sapiens, 72 h, Hs 729, 3-day incubation, read-out: Cell Count IC50) was less than 6.00. For the same compound, the “Cell Count Activity Area” value (Hs 729; Hs 729, scale 0-10) was 1.80, the “Relative cell count (%) Mean” value (Hs 729; 1.00E+00 microM) was 65.5% and the “Relative cell count (%) Mean” value (Hs 729; 1.00E−01 microM) was 69.6%. For the same compound, the “Relative cell count (%) Mean” value (Hs 729; 1.00E−02 microM) was 79.6%, the “Relative cell count (%) Mean” value (Hs 729; 1.00E−03 microM) was 87.3% and the “Relative cell count (%) Mean” value (Hs 729; 1.01E−04 microM) was 95.7%. For the same compound, the “Relative cell count (%) Mean” value (Hs 729; 3.16E−01 microM) was 63.1%, the “Relative cell count (%) Mean” value (Hs 729; 3.17E−02 microM) was 76.9% and the “Relative cell count (%) Mean” value (Hs 729; 3.17E−03 microM) was 79.1%. The “Relative cell count (%) Mean” value (Hs 729; 3.18E−04 microM) was 87.7%.
